Laboratory results from ChEMBL document CHEMBL1131395, “Novel antineoplastic agents with efficacy against multidrug resistant tumor cells” (1998).

Key:
Assay type in all cases: functional
[1] = system: OVCAR-8; test: Compound was tested in vitro for growth inhibition of OVCAR-8 cells derived from human ovarian tumor
[2] = system: COLO 205; test: Compound was tested in vitro for growth inhibition of COLO 205 cells derived from human colon tumor
[3] = system: MDA-N; test: Compound was tested in vitro for growth inhibition of MDA-N cells derived from human breast tumor
[4] = system: CAKI-1; test: Compound was tested in vitro for growth inhibition of CAKI-1 cells derived from human renal tumor
[5] = system: MCF7; test: Compound was tested in vitro for growth inhibition of MCF-7 cells derived from human breast tumor.
[6] = system: SF-295; test: Compound was tested in vitro for growth inhibition of SF 295 cells derived from CNS tumor; settings: Homo sapiens
[7] = system: PC-3; test: Compound was tested in vitro for growth inhibition of PC 3 cells derived from human prostate tumor
[8] = system: P388; test: Compound was tested in vitro for growth inhibition of murine leukemic P388 cells; settings: Mus musculus
[9] = system: P388/ADR; test: Compound was tested in vitro for growth inhibition of murine leukemic P388/ADR cells that exhibit MDR phenotype.; settings: Mus musculus
[10] = system: CCRF-CEM; test: Compound was tested in vitro for growth inhibition of CCRF-CEM cells derived from human leukemia.
[11] = system: SK-MEL-5; test: Compound was tested in vitro for growth inhibition of SK-MEL-5 cells derived from human melanoma.
[12] = system: NCI-H522; test: Compound was tested in vitro for growth inhibition of […] cells derived from human lung tumor
[13] = system: NCI/ADR-RES; test: Compound was tested in vitro for growth inhibition of MCF-7/ADR cells that exhibit MDR phenotype.; settings: Homo sapiens

| SMILES | GI50 [1] | GI50 [2] | GI50 [3] | GI50 [4] | GI50 [5] | GI50 [6] | GI50 [7] | GI50 [8] | GI50 [9] | GI50 [10] | GI50 [11] | GI50 [12] | GI50 [13] |
| --- | --- | --- | --- | --- | --- | --- | --- | --- | --- | --- | --- | --- | --- |
| O=S(=O)(Nc1ccc2c(c1)OCCO2)c1c(F)c(F)c(F)c(F)c1F | 91 nM | 19 nM | 40 nM | 63 nM | 430 nM | 54 nM | 62 nM | 140 nM | 340 nM | 51 nM | 20 nM | 26 nM | 410 nM |
| Cc1ccc(NS(=O)(=O)c2c(F)c(F)c(F)c(F)c2F)cc1C | 437 nM | 220 nM | 123 nM | 479 nM | 120 nM | 479 nM | 468 nM | 37 nM | 110 nM | 68 nM | 151 nM | 49 nM | 320 nM |
| COc1ccc(NS(=O)(=O)c2ccc(F)c(F)c2F)cc1 | 5000 nM | 1300 nM | 1400 nM | 5500 nM | – | 2700 nM | 3200 nM | – | – | 600 nM | 1000 nM | 371 nM | – |
| CN(C)c1ccc(NS(=O)(=O)c2c(F)c(F)c(F)c(F)c2F)cc1 | 372 nM | 220 nM | 30 nM | 417 nM | 34 nM | 501 nM | 525 nM | 27 nM | 36 nM | 320 nM | 183 nM | 58 nM | 96 nM |
| CC[C@]1(O)C[C@@H]2CN(CCc3c([nH]c4ccccc34)[C@@](C(=O)OC)(c3cc4c(cc3OC)N(C)[C@H]3[C@@](O)(C(=O)OC)[C@H](OC(C)=O)[C@]5(CC)C=CCN6CC[C@]43[C@@H]65)C2)C1 [VINBLASTINE] | – | – | – | – | 2.3 nM | – | – | 4.1 nM | 470 nM | – | – | – | 350 nM |
| CC(=O)O[C@H]1C(=O)[C@@]2(C)[C@H]([C@H](OC(=O)c3ccccc3)[C@]3(O)C[C@H](OC(=O)[C@H](O)[C@@H](NC(=O)c4ccccc4)c4ccccc4)C(C)=C1C3(C)C)[C@]1(OC(C)=O)CO[C@@H]1C[C@@H]2O [PACLITAXEL] | – | – | – | – | 1.1 nM | – | – | 16 nM | > 15000 nM | – | – | – | > 15000 nM |
| O=S(=O)(Nc1ccc2[nH]ccc2c1)c1c(F)c(F)c(F)c(F)c1F | 50 nM | 14 nM | 21 nM | 72 nM | 28 nM | 40 nM | 35 nM | 12 nM | 32 nM | < 10 nM | 13 nM | < 10 nM | 115 nM |
| COc1ccc(NS(=O)(=O)c2c(F)c(F)c(F)c(F)c2F)cc1 | 50 nM | < 10 nM | 41 nM | 56 nM | 29 nM | 11 nM | < 10 nM | 12 nM | 34 nM | < 10 nM | < 10 nM | < 10 nM | 58 nM |
